Source: PubChem BioAssay AID2745 (NMMLSC, 2010)
Activity calls are given as the source filed them. The rule behind the calls is not given here.

Test: concentration series on yeast TOR reporter LAP4 – cell-based, MLPCN hits, flow cytometry, dose response (AID 2745);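 note: yeast exposed to compound for three hours at 30 degrees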
Conditions: S. cerevisiae LAP4-GFP reporter, flow cytometry fluorescence; at 33 µM (top of the series)

| SMILES | LAP4-GFP fluorescence (kMESF) |
| --- | --- |
| Cc1ccccc1[C@@]1(C)ON(c2ccccc2C(F)(F)F)C1=O | 5.8 kMESF (inactive) |
| CCOC(=O)CS(=O)(=O)c1nc(-c2ccc(F)cc2)cc(C(F)(F)F)n1 | 11.2 kMESF (inactive) |
| Cc1ccc(/C(N)=N/OC(=O)c2ccc(F)cc2)cc1 | 5.21 kMESF (inactive) |
| [O-][n+]1cccc2c(Br)cc(Br)c(O)c21 | 12.9 kMESF (inactive) |
| Cc1cc(/C=C2/SC(=S)N(c3cccc(Cl)c3)C2=O)c(C)n1-c1cccnc1 | 10.5 kMESF (inactive) |
| O=C(Nc1ccccc1)ON=C1CCCC1 | 4.79 kMESF (inactive) |
| Cc1ccc(C(=O)/C=C/C(=O)c2ccc(C)cc2)cc1 | 6.7 kMESF (inactive) |
| CCOc1ccccc1/C=c1\sc2ncnn2c1=O | 19 kMESF (inactive) |
| O=C1C=CC(=O)N1c1ccc(Sc2ccc([N+](=O)[O-])cc2)cc1 | 5.47 kMESF (inactive) |
| O=C(Nc1cccc(C(F)(F)F)c1)Oc1ccc(Cl)c2cccnc12 | 12.8 kMESF (inactive) |
| CCc1ccc(/C=C/C(=O)c2cc(Br)ccc(=O)c2O)cc1 | 9 kMESF (inactive) |
| O=S(=O)(c1ccccc1)c1ccc(C(F)(F)F)cn1 | 4.29 kMESF (inactive) |
| CC(C)Cn1c(=O)c(C(=O)Nc2ccncc2)c(O)c2ccccc21 | 2.36 kMESF (inactive) |
| Cc1[nH]n(-c2ncc(-c3ccccc3)s2)c(=O)c1C(c1ccc(Cl)cc1)C(C#N)C#N (centres undefined) | 8.02 kMESF (inactive) |
| O=C(NNC(=S)NC(=O)c1ccco1)c1ccc(F)cc1 | 5.61 kMESF (inactive) |
| O=C(Oc1c(Cl)cc(Cl)c2cccnc12)c1cccs1 | 13.8 kMESF (inactive) |
| Clc1cnc(N/N=C/c2cccs2)c(Cl)c1 | 6.2 kMESF (inactive) |
| COC(=O)CCCC1=CC2=CC(=O)C(C)(OC(=O)CCc3ccccc3)C(=O)C2=CO1 (centres undefined) | 3.13 kMESF (inactive) |
| Cc1c(C)c2ccc(Oc3ccc([N+](=O)[O-])cc3C(F)(F)F)c(C)c2oc1=O | 3.47 kMESF (inactive) |
| COc1ccc(OCC(=O)NNC(=S)NC(=O)C2CCCCC2)cc1 | 14.4 kMESF (inactive) |
| Cc1sc(/C=C2\C(=O)ON=C2c2ccccc2)cc1Br | 2.73 kMESF (inactive) |
| O=C1C=C(c2ccc(Cl)cc2)C(=O)N1Nc1ccccc1 | 5.81 kMESF (inactive) |

| SMILES | LAP4-GFP fluorescence (kMESF) |
| --- | --- |
| Cc1c(NC2=C(Cl)C(=O)N(c3ccccc3)C2=O)c(=O)n(-c2ccccc2)n1C | 6.71 kMESF (inactive) |
| COc1ccc(N2CCN(C(=O)c3ccccc3)CC2)c([N+](=O)[O-])c1 | 6.87 kMESF (inactive) |
| Fc1cccc(Nc2ncnc3c2cnn3-c2ccccc2)c1 | 5.86 kMESF (inactive) |
| N=C1/C(=C\c2coc3ccccc3c2=O)C(=O)N=C2SC(c3ccncc3)=NN12 | -3.74 kMESF (inactive) |
| Cc1ccc(NC(=O)c2cc(N3C(=O)C=CC3=O)ccc2Cl)cc1C | 4.75 kMESF (inactive) |
| Oc1c(CN2CCN(c3ccccc3)CC2)cc(Br)c2cccnc12 | 20.9 kMESF (inactive) |
| Oc1ccc(CNc2ccccc2)c2cccnc12 | 3.88 kMESF (inactive) |
| CCCCCCCCCCCCCCCC[n+]1cccc2ccccc21 | 1.21 kMESF (inactive) |
| CCC(=O)Oc1oc(-c2ccccc2)nc1C=Nc1ccc(C)cc1 | 4.73 kMESF (inactive) |
| Nc1ccccc1SC(C[N+](=O)[O-])c1ccccc1 (centres undefined) | 11.5 kMESF (inactive) |
| Cc1[nH][nH]c(=O)c1C(c1ccc(-c2ccc(Cl)cc2)o1)c1c(C)[nH][nH]c1=O | 6.67 kMESF (inactive) |
| COc1cccc2cc(-c3nc4ccccc4o3)c(=O)oc12 | 3.03 kMESF (inactive) |
| C[C@H]1C[C@@H](C)C(=O)[C@@H]([C@H](O)CC2CC(=O)NC(=O)C2)C1 | 7.12 kMESF (inactive) |
| CC1(c2ccccc2)ON(c2ccccc2C(F)(F)F)C1=O (centres undefined) | 5.97 kMESF (inactive) |
| COc1cc(NC(=O)c2ccc(C)cc2)ccc1NC(=O)c1cc2ccccc2o1 | 3.61 kMESF (inactive) |
| Cc1ccc(-c2nc(N)c3c(-c4ccc(C)cc4)nn(C(C)(C)C)c3n2)cc1 | 3.37 kMESF (inactive) |
| CC1(C(=O)NC(=S)NNC(=O)c2ccncc2)CCCCC1 | 4.99 kMESF (inactive) |
| O=C1C2C3C=CC(CO)(O3)C2C(=O)N1c1ccccc1-c1ccccc1 (centres undefined) | 5.75 kMESF (inactive) |
| COc1ccc(C(=O)NC(=S)NNC(=O)CCc2ccccc2)cc1 | 5.9 kMESF (inactive) |
| O=C(/C=C/c1ccccc1Cl)c1ccccc(=O)c1O | -5.15 kMESF (inactive) |
| Cc1ccc(NC(=O)c2nc(S(=O)(=O)Cc3ccccc3)ncc2Cl)cc1 | 9.01 kMESF (inactive) |
| O=C1C(Cl)=C(Nc2ccccc2O)C(=O)N1c1ccccc1 | 4.81 kMESF (inactive) |

| SMILES | LAP4-GFP fluorescence (kMESF) |
| --- | --- |
| O=C(NC(=S)NNC(=O)[C@H]1C[C@@H]1c1ccccc1)c1cccc(F)c1 | 17.8 kMESF (inactive) |
| COc1ccc(-c2cc3nc4n(c(=O)c3s2)CCC4)cc1 | 3.68 kMESF (inactive) |
| O=C(Nc1ccc(NC(=O)c2cc3ccccc3o2)cc1)c1ccc2c(c1)OCCO2 | 3.21 kMESF (inactive) |
| CC[C@H](C)/C=C(C)/C=C/C1=CC2=C(Cl)C(=O)[C@@](C)(OC(C)=O)C(=O)C2=CO1 | 0.86 kMESF (inactive) |
| Cc1[nH][nH]c(=O)c1C(c1ccc(-c2ccc(Cl)c(Cl)c2)o1)c1c(C)[nH][nH]c1=O | 6.01 kMESF (inactive) |
| COc1ccc2c(c1)S/C(=C\C(=O)c1ccncc1)N2C | 4.85 kMESF (inactive) |
| CC(c1ccccc1)N1C(=O)/C(=C/c2ccncc2)SC1=S (centres undefined) | 11.3 kMESF (inactive) |
| Oc1cc(-c2ccc(N3CCCCC3)nc2)cc2cccnc12 | 4.15 kMESF (inactive) |
| COc1ccccc1N=Cc1nc(-c2ccccc2)oc1OC(C)=O | 8.6 kMESF (inactive) |
| O=C(c1ccc(Cl)cc1)N1CCN(c2cccc3[nH]ccc23)CC1 | 6.45 kMESF (inactive) |
| Cc1cc(NC(=O)c2cccnc2Cl)ccc1NC(=O)c1cc2ccccc2o1 | 3.41 kMESF (inactive) |
| CSc1nnc2c3cc(F)ccc3n(C)c2n1 | 2.93 kMESF (inactive) |
| Cc1ccc(/C=C/C(=O)c2ccc([N+](=O)[O-])o2)cc1 | 9.71 kMESF (inactive) |
| NC(=O)COc1ccc(C(=O)/C=C2/C(=O)Nc3ccccc32)cc1 | 6.78 kMESF (inactive) |
| CCCc1cc(NCc2ccccn2)n2nc(C)c(-c3ccccc3)c2n1 | 9.24 kMESF (inactive) |
| O=C(Nc1ccc(O)cc1)C1CCCN1S(=O)(=O)c1ccc(F)cc1 (centres undefined) | 3.13 kMESF (inactive) |
| O=c1c2cc(Cl)ccc2nc(-c2ccc([N+](=O)[O-])cc2)n1O | 5.26 kMESF (inactive) |
| COC(=O)CCS(=O)(=O)c1nc(-c2ccccc2)cc(C(F)(F)F)n1 | 20.1 kMESF (inactive) |
| Cc1ccccc1OCC(=O)NNC(=S)NC(=O)c1ccco1 | 6.11 kMESF (inactive) |
| O=C1C(Cl)=C(Nc2ccccc2O)C(=O)N1CCc1ccccc1 | 5.01 kMESF (inactive) |
